The structures appear in SMILES notation. “Also recorded” adds a separate entry of the source.

Assay [1] deals with leukemia and lung cancer cell lines. Kind of assay: Functional (MTT) screening of NSUN1/2-targeting libraries in leukemia and lung cancer cell lines. It is filed as cell-based, human. As to conditions: for Bioactive positive hit, tumor cell growth inhibition and lineage preference: leukemia and lung cancer cell lines; for Efficacy of tumor cell growth inhibition: multiple leukemia lines and/or lung cancer cell lines. As for the experimental part: (§1) FIGS. 11A-11D display scatter plot representations of screening results for AI-designed NSUN1-targeting compound libraries in a venetcoclax-resistant human myeloid leukemia cell line (SC), lung cancer cell line (H82), and venetoclax resistant human […], and a schematic representation of categorization of the results. A human myeloid leukemia cell Line (SC), a lung cancer cell line (H82 or K562) were both incubated at drug concentration 10 μM/μL overnight. MTT assays were performed after 24 hours, and changes were calculated as the percentage of mean absorbance (n=3) versus mean absorbance of drug-free control (n=3). Negative outliers indicated in red ovals. FIG. 11A depicts the results of an NSUN1-targeting drug library, 74 drugs, comparing growth/inhibition in H-82 (Y axis) and SC (X axis) cell lines. FIG. 11B depicts the results of an NSUN2-targeting drug library, 102 drugs, comparing growth/inhibition in H-82 (Y axis) and SC (X axis) cell lines. FIG. 11C depicts the results of an NSUN1-targeting drug library, 74 drugs, comparing growth/inhibition in K562 (Y axis) and SC (X axis) cell lines. FIG. 11D is a schematic representation showing categorization of the results from screens performed as described in FIG. 11, and validation experiments as described in FIG. 12.
(§2) FIGS. 12A-12J display bar graphs displaying the results of validation experiments for small molecule inhibitors of NSUN1/2-ACS interactions as identified herein. Drug validation of select SC, H82, and/or K562 inhibiting compounds in mouse acute myeloid leukemia cell Line (C1498), SC cells, H82 cells, and/or K562 cells. NSUN1-17 and/or venetoclax acted as controls. Inhibition of cell vitality was identified as dose-dependent for certain small molecules, not merely cytotoxic. In brief, stock with concentration 0.4×10^6 test (e.g., SC, H82, K562, or C1498, as labelled) cells/mL, and 10 μM/μL drug was serially diluted into drug-free cell stock to reach concentrations of 1 μM/μL and […] and split into 100 μL volumes in a 96-well plate. MTT assays performed after 24 hour incubation. Percentages calculated as a difference in mean absorbance of each drug triplicate and mean absorbance in drug-free cell triplicate. Red bars represent standard errors. The concentration of drug represented by each column is from left to right as written in the figure keys. FIGS. 12A-12E provide results from independent repeats for different groupings of small molecules tested against C1498 cells. FIGS. 12F-12G provide results from independent repeats for different groupings of small molecules tested against H82 cells. FIGS. […] provide results from independent repeats for different groupings of small molecules tested against SC cells. FIG. 12J provide results from an assay against K562 cells.
The inventors then designed a protocol for functional screening of NSUN1/2-targeting supercomputing/AI-derived compound libraries as schematically presented in FIGS. 5A-5G. Briefly, the library compounds were obtained from various chemical companies/vendors and dissolved in DMSO, and then applied to 96-well plates that contained leukemia and/or other cancer cells that were resistant to venetoclax. Both the routine colorimetric assay (MTT assay) and the newly developed NSUN1/2-targeting fluorescence quenching and release (FQR) assay were performed to select bioactive compounds for further quantitative study to confirm that they targetNSUN1/2 and their associated ACS. As described below, the compound libraries screened through cancer cell proliferation and/or NSUN1/2 localization to the ACS successfully identified numerous promising compounds that can inhibit the leukemia cell growth and appear to target the NSUN1-mediated ACS (see Table 2). This success has proven the feasibility and efficacy of the described supercomputing/AI design and functional screening of the NSUN1/2-targeting drug libraries. In some aspects, screening is conducted using drug-resistant cell lines. […]

Assay [2] has as its system C1498 cells. Kind of assay: MTT growth inhibition in myeloid leukemia cell line C1498. It is filed as cell-based, mouse. As to conditions: C1498, mouse myeloid leukemia, wrapped cell.
Description: (§3) FIGS. 8A-8B display a schematic of an 5-ethynyl uridine click chemistry (EC)-coupled flow cytometry (EC-FCM) assay (FIG. 8A), while FIG. 8B depicts the results of an EC-FCM assay showing distinct drug-specific signatures/patterns of nascent RNA synthesis inhibition in the venetoclax sensitive leukemia cell line (K1). The MTT assay measures cell viability and proliferation as well as cytotoxicity of compounds by assessing cellular metabolic activity. The associated measurement can be described as cell viability, cell killing, and/or growth inhibition.
as §2
The inventors then designed a protocol for functional screening of NSUN1/2-targeting supercomputing/AI-derived compound libraries as schematically presented in FIGS. 5A-5G. Briefly, the library compounds were obtained from various chemical companies/vendors and dissolved in DMSO, and then applied to 96-well plates that contained leukemia and/or other cancer cells that were resistant to venetoclax. Both the routine colorimetric assay (MTT assay) and the newly developed NSUN1/2-targeting fluorescence quenching and release (FQR) assay were performed to select bioactive compounds for further quantitative study to confirm that they targetNSUN1/2 and their associated ACS. As described below, the compound libraries screened through cancer cell proliferation and/or NSUN1/2 localization to the ACS successfully identified numerous promising compounds that can inhibit the leukemia cell growth and appear to target the NSUN1-mediated ACS (see Table 2). This success has proven the feasibility and efficacy of the described supercomputing/AI design and functional screening of the NSUN1/2-targeting drug libraries. In some aspects, screening is conducted using drug-resistant cell lines. In some aspects, screening is conducted using drug-sensitive cell lines. In some aspects, screening is conducted in leukemia cell lines. In some aspects, screening is conducted in other cancer cell lines besides leukemia (e.g., lung cancer cell lines). In some aspects, NSUN1/2-ACS inhibitors identified are verified in additional cell lines and/or animal models (see e.g., Tables 4-6).

The subject of assay [3] is SC cells. Briefly: MTT growth inhibition in venetoclax-resistant monocytic leukemia cell line SC. It counts as cell-based, human. As to conditions: for Effective cell lines: SC: venetoclax-resistant human monocytic leukemia, wrapped cell.
Description: as §3, §1, §2
The inventors then designed a protocol for functional screening of NSUN1/2-targeting supercomputing/AI-derived compound libraries as schematically presented in FIGS. 5A-5G. Briefly, the library compounds were obtained from various chemical companies/vendors and dissolved in DMSO, and then applied to 96-well plates that contained leukemia and/or other cancer cells that were resistant to venetoclax. […]

Assay [4] relates to H82 cells. Briefly: MTT growth inhibition in venetoclax-resistant lung cancer cell line H82. It counts as cell-based, human. As to conditions: H82, venetoclax-resistant human lung cancer, wrapped cell.
Description: as §3, §1
FIGS. 12A-12J display bar graphs displaying the results of validation experiments for small molecule inhibitors of NSUN1/2-ACS interactions as identified herein. Drug validation of select SC, H82, and/or K562 inhibiting compounds in mouse acute myeloid leukemia cell Line (C1498), SC cells, H82 cells, and/or K562 cells. NSUN1-17 and/or venetoclax acted as controls. Inhibition of cell vitality was identified as dose-dependent for certain small molecules, not merely cytotoxic. In brief, stock with concentration 0.4×10^6 test (e.g., SC, H82, K562, or C1498, as labelled) cells/mL, and 10 μM/μL drug was serially diluted into drug-free cell stock to reach concentrations of 1 μM/μL and […] and split into 100 μL volumes in a 96-well plate. MTT assays performed after 24 hour incubation. Percentages calculated as a difference in mean absorbance of each drug triplicate and mean absorbance in drug-free cell triplicate. […]

Turning to `O=c1ccc2ccc(OCN3CCN(c4cccc5sccc45)CC3)cc2[nH]1` [NSUN2-35, reference compound], the “Bioactive positive hit, tumor cell growth inhibition and lineage preference” value in assay [1] is on record as “inhibits tumor cell growth in a lung cancer preferential manner”.

Consider `CC(C)Cc1nc(NC(=O)c2cc(-c3ccc4c(c3)CCO4)n[nH]2)n[nH]1` [NSUN1-17.16], for which the “Bioactive positive hit, tumor cell growth inhibition and lineage preference” value in assay [1] is “inhibits tumor cell growth in a non-lineage specific manner”.

Turning to `Oc1nc(Nc2ccc(Cl)cc2)nc2nccc(-c3ccncc3)c12` [NSUN1-67], the “Bioactive positive hit, tumor cell growth inhibition and lineage preference” value in assay [1] is “inhibits tumor cell growth in a non-lineage specific manner”.

Turning to `Nc1nc(Cn2c(=O)oc3ccccc32)nc(Nc2ccccc2)n1` [NSUN1-22], the “Effective cell lines: C1498” value in assay [2] is on record as “C1498 (weakly)”. In assay [1], the “Bioactive positive hit, tumor cell growth inhibition and lineage preference” value was “inhibits tumor cell growth in a lung cancer preferential manner”.

Consider `Nc1ncccc1-c1cc(Cc2ccc(COc3ccccn3)cc2)no1` [NSUN1-11], for which the “Inhibition of growth of venetoclax-resistant leukemia (SC) cells” value in assay [3] is recorded as “inhibition of the growth of venetoclax-resistant SC cells; also recorded: inhibit drug (venetoclax)-resistant leukemia cells”. Further, in assay [1], the “Bioactive positive hit, tumor cell growth inhibition and lineage preference” value was “inhibits tumor cell growth in a non-lineage specific manner”.

`Cc1[nH]nc2ccc(-c3cncc(OCC(N)Cc4ccccc4)c3)cc12` (stereo not drawn) [NSUN1-73]: the “Efficacy of tumor cell growth inhibition” value in assay [1] was “high-efficacy of tumor cell growth inhibition”.

Turning to `O=C(Nc1cccc(-c2nnc3n2CCCC3)c1)c1cc(-c2ccccc2)n[nH]1` [NSUN1-74], in assay [2], the “Effective cell lines: C1498” value is recorded as “C1498 (weakly)”. Further, the “Bioactive positive hit, tumor cell growth inhibition and lineage preference” value in assay [1] is “inhibits tumor cell growth in a non-lineage specific manner”.

Consider `CC(C)C[C@H](NC(=O)[C@@H](O)[C@H](N)Cc1ccccc1)C(=O)O` [NSUN1-10, Bestatin or Ubenimex, reference compound], for which the “Bioactive positive hit, tumor cell growth inhibition and lineage preference” value in assay [1] was “inhibits tumor cell growth in a leukemia preferential manner”.

In the case of `O=C(Nc1ccc(CN2CCCCC2)cc1)c1cccc(COc2ccc(Br)cc2)c1` [NSUN2-37], the “Effective cell lines: SC” value in assay [3] was “H82 & SC >”. In addition, the “Effective cell lines: H82” value in assay [4] is given as “H82 & SC >”. Further, in assay [2], the “Effective cell lines: C1498” value is recorded as “H82 & SC >”. Also, in assay [1], the “Bioactive positive hit, tumor cell growth inhibition and lineage preference” value is listed as “inhibits tumor cell growth in a non-lineage specific manner”.

Regarding `NC1(C(=O)NC(CCO)c2ccc(Cl)cc2)CCN(c2ncnc3[nH]ccc23)CC1` (stereo not drawn) [NSUN1-9], the “Effective cell lines: SC” value in assay [3] is “SC & C1498 >”. Also, the “Effective cell lines: H82” value in assay [4] was “SC & C1498 >”. Moreover, in assay [2], the “Effective cell lines: C1498” value was “SC & C1498 >”. In addition, the “Bioactive positive hit, tumor cell growth inhibition and lineage preference” value in assay [1] is “inhibits tumor cell growth in a leukemia preferential manner”.

For the compound `C=CC(=O)Nc1cccc(-c2cccc3cnc(Nc4ccc(N5CCN(CCO)CC5)c(F)c4F)nc23)c1` [NSUN1-14], the “Efficacy of tumor cell growth inhibition” value in assay [1] was “high-efficacy of tumor cell growth inhibition”.

As to `NC1(Cc2ccc(Cl)cc2)CCN(c2ncnc3[nH]ccc23)CC1` [NSUN1-19], the “Effective cell lines: SC” value in assay [3] is “H82 > SC &”. The “Effective cell lines: H82” value in assay [4] is recorded as “H82 > SC &”. Moreover, in assay [2], the “Effective cell lines: C1498” value was “H82 > SC &”. Besides, the “Bioactive positive hit, tumor cell growth inhibition and lineage preference” value in assay [1] is recorded as “inhibits tumor cell growth in a lung cancer preferential manner”.

(Values after patent US20260306459A1, “INHIBITORS OF NSUN1- AND NSUN2-MEDIATED ACTIVE STRUCTURES” (THE UNIVERSITY OF CHICAGO, priority 2023, published 2026).)
